From ChEMBL document CHEMBL1201862, “PubChem BioAssay data set” (2004)
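Five concentrations, 48 hours, 96-well plates. GI50 marks 50% less growth.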 Activity calls are given as the source filed them. No stated cut-off is given here; in the data, active = GI50 up to about 1.1 µM and inactive = higher.

How the values were obtained:
Test in all cases: DTP human tumour cell line panel, 48 h
[1] = system: U-251
[2] = system: KM12
[3] = system: UACC-62
[4] = system: HL-60
[5] = system: UACC-257
[6] = system: SK-OV-3
[7] = system: RXF 393
[8] = system: SF-268
[9] = system: CAKI-1
[10] = system: A549
[11] = system: CCRF-CEM
[12] = system: 786-0
[13] = system: NCI-H23
[14] = system: HCT-116
[15] = system: HCC 2998
[16] = system: SK-MEL-5
[17] = system: MDA-MB-231
[18] = system: OVCAR-4
[19] = system: T47D
[20] = system: NCI-H522

Row | SMILES | GI50 [1] | GI50 [2] | GI50 [3] | GI50 [4] | GI50 [5] | GI50 [6] | GI50 [7] | GI50 [8] | GI50 [9] | GI50 [10] | GI50 [11] | GI50 [12] | GI50 [13] | GI50 [14] | GI50 [15] | GI50 [16] | GI50 [17] | GI50 [18] | GI50 [19] | GI50 [20]
1 | O=C(CSc1nc(O)nc2[nH]cnc12)Nc1ccccc1 | 33.1 µM (inactive) | > 100 µM (inactive) | 80.7 µM (inactive) | > 100 µM (inactive) | 86.9 µM (inactive) | > 100 µM (inactive) | > 100 µM (inactive) | 69.2 µM (inactive) | > 100 µM (inactive) | > 100 µM (inactive) | 33.7 µM (inactive) | 57.5 µM (inactive) | > 100 µM (inactive) | 91.2 µM (inactive) | > 100 µM (inactive) | 46.7 µM (inactive) | > 100 µM (inactive) | > 100 µM (inactive) | > 100 µM (inactive) | 86.9 µM (inactive)
2 | CC1(C)[C@@H]2C[C@H]1C(Cc1cccc(C[C@H]3c4cc(-c5ccccn5)ncc4[C@H]4C[C@@H]3C4(C)C)c1)c1cc(-c3ccccn3)ncc12 (stereo not given in full) | 0.514 µM (active) | 0.647 µM (active) | 0.499 µM (active) | 0.295 µM (active) | 1.48 µM (inactive) | 1.25 µM (inactive) | 8.41 µM (inactive) | 0.513 µM (active) | 1.74 µM (inactive) | 0.518 µM (active) | 0.337 µM (active) | 0.32 µM (active) | 1.82 µM (inactive) | 0.428 µM (active) | 0.923 µM (active) | 0.303 µM (active) | 22.6 µM (inactive) | 4.58 µM (inactive) | 1.71 µM (inactive) | 1.63 µM (inactive)
3 | c1cc(C[S+]2CCCC2)ccc1C[S+]1CCCC1 | > 100 µM (inactive) | > 100 µM (inactive) | > 100 µM (inactive) | > 100 µM (inactive) | > 100 µM (inactive) | > 100 µM (inactive) | > 100 µM (inactive) | > 100 µM (inactive) | > 100 µM (inactive) | 65.5 µM (inactive) | > 100 µM (inactive) | > 100 µM (inactive) | > 100 µM (inactive) | > 100 µM (inactive) | > 100 µM (inactive) | > 100 µM (inactive) | > 100 µM (inactive) | > 100 µM (inactive) | > 100 µM (inactive) | > 100 µM (inactive)
